Results published in patent US20090155209A1, “NOVEL MACROCYCLIC INHIBITORS OF HEPATITIS C VIRUS REPLICATION” (priority 2007, published 2009).
“And” between values parts separate entries of the source, which are not always exact repeats. Equal entries are not always repeated. Where two headings read alike, the source gives them in different places.

Key:
[1] = Compartmental PK model fitted to plasma data of the 400 mg fed cohort; assay type: in vivo, healthy volunteers (human); conditions: median, compartmental PK parameter
Description: The compartmental model was constructed to fit the PK data from the 400 mg, fed cohort only. Candidate PK models were fit to plasma data using weighted, non-linear regression implemented in Adapt 5. (1, 2) Each subjects' data were fit separately for a total of 10 fitted profiles. Model discrimination was accomplished according to the “Rule of Parsimony” based on Akaike's Information Criterion. (3, 4)
The most robust fit to the data was obtained using a three-compartment model (one absorptive, two distributive) with first order absorption and elimination. […] No a priori assumptions regarding the number of phases were made; the fit of the observed data and the AIC were used to guide the selection of a one, two, or three-phase absorption.

[2] = Simulated steady-state plasma and liver profiles: predicted AUC0-24, Cavg, % Time>EC90, Ctrough,liver/EC90; parameters: species or system human; conditions: 8 or 12 hour dose interval
Description: Fitted parameters were used to compute predicted steady-state AUC0-24 and integrated average steady-state concentrations (Cavg) in plasma and in liver. Three hypothetical liver to plasma ratios (LPR) were considered given the variability seen in various animal species: 8 to 1, 30 to 1, and 100 to 1. The LPR seen in rats was approximately 8:1, LPR in dogs was approximately 25-40:1 and LPR in monkeys was approximately 80-125:1.
Using ADAPT 5, simulated plasma profiles were generated using individual subject fitted parameters and two different dosing regimens, 800 mg Q12H and 500 mg Q8H, dosed to steady-state.
By simulating plasma concentration profiles at steady-state, it is possible to predict ITMN-191 concentrations in liver and then index these to viral sensitivity. Summary statistics for the percentage of a dosing interval for which predicted liver concentrations remain above the EC90 (% Time>EC90) and the ratio of predicted trough concentration in the liver to the EC90 (Ctrough, liver/EC90) are provided in Table 12.

HCV = test: EC90 (viral sensitivity); assay type: cell-based, hepatitis C virus (HCV); conditions: Hepatitis C virus
[3] = Single ascending dose study, fasted and fed: safety and non-compartmental plasma PK; assay type: in vivo, healthy volunteers (human); conditions: for AUC0-inf / Cmax / half-life / Tmax: human, plasma, oral; for Tmax: read-out: Tmax
Description: A single ascending dose (SAD) study of the compound 100 was conducted in healthy volunteers. The compound 100 was administered as monotherapy both with and without food. The safety and pharmacokinetic profile of the single dose of the compound 100 was assessed.
Interim, blinded data were used for Pharmacokinetic (PK) study relating to food effects. With the exception of the 400 mg cohort, eight subjects were studied at each dose (single doses of 100, 200, or 800 mg of the sodium salt of the compound 100, which may be referred to herein as ITMN-191, administered in the fasting state). In the 400 mg cohort, ten subjects received single 400 mg doses of ITMN-191 under both fasted and fed conditions with a 5-day washout period between dosing. In the 100 mg cohort, subjects were sampled within 1 hour before dosing and at 0.5, 1, 1.5, 2, 2.5, 3, 4, 6, 8, 12, 18, 24, 32 and 48 hours after dosing. For subsequent cohorts, subjects were sampled within 1 hour before dosing and at 0.25, 0.5, 1, 1.5, 2, 2.5, 3, 4, 6, 8, 12, 18, 24, and 32 hours after dosing. Nominal (not actual) sampling times were used for the analysis. PK samples were analyzed using liquid chromatography-tandem mass spectrometry (LC/MS/MS with API 4000 mass spectrometer) following solid-phase extraction. The upper and lower limits of quantitation (ULOQ and LLOQ) are 100 and 0.01 ng/mL, respectively.
Pharmacokinetic parameter estimates were calculated using non-compartmental methods (implemented using Microsoft Excel®). Half-lives were determined by visual inspection of the log concentration-time plots to choose the terminal phase (minimum of three detectable observations). Using linear regression of the chosen terminal phase observations, elimination rate constants were calculated as the negative slope of the regression line and half-life as the natural log of 2 divided by the elimination rate constant.
Ten subjects received single 1600 mg doses of ITMN-191 under both fasted and fed conditions with a 5-day washout period between dosing. For each condition, subjects were sampled within 1 hour before dosing and at 0.25, 0.5, 1, 1.5, 2, 2.5, 3, 4, 6, 8, 12, 18, 24, and 32 hours after dosing. Pharmacokinetic parameter estimates were calculated using non-compartmental methods. Half-life (t1/2) was determined by visual inspection of the log concentration-time plots to choose the terminal phase (minimum of three detectable observations). Using linear regression of the chosen terminal phase observations, elimination rate constants were calculated as the negative slope and half-life as the natural log of 2 divided by the elimination rate constant.

## CC(C)(C)OC(=O)N[C@H]1CCCCC/C=C\[C@@H]2C[C@@]2(C(=O)NS(=O)(=O)C2CC2)NC(=O)[C@@H]2C[C@@H](OC(=O)N3Cc4cccc(F)c4C3)CN2C1=O [ITMN-191]
[1]; human, plasma, oral, n = 10, read-out: T1/2,λz (converted)
  half-life: 1.53 h
[1]; human, plasma, oral, n = 10, read-out: Vss/F
  Vd/F: 2950 L
[1]; n = 10
  CLt/F: 3800 L/h
  Vc/F: 1975 L
[2]
  accumulation associated with multiple doses: negligible
HCV
  EC90: 14.1 nM and 0.0106 µg/mL
[3]; 1600 mg fasted versus 800 mg cohort
  fold increase of median AUC0-inf and Cmax: 3-4 fold
[3]; dose range of 100-800 mg
  dose linearity of pharmacokinetics based on AUC0-inf: linear
[3]; 100 mg, median, single 100 mg dose, fasting state, N=8, read-out: AUC0-inf
  AUC0-inf: 20.4 ng·h/mL
[3]; 100 mg, median, single 100 mg dose, fasting state, N=8, read-out: Cmax
  Cmax: 14.7 ng/mL
[3]; 100 mg, median, single 100 mg dose, fasting state, N=8, read-out: T1/2 (converted)
  half-life: 1.78 h
[3]; 100 mg, median, single 100 mg dose, fasting state, N=8
  Tmax: 0.75 h
[3]; 200 mg, median, single 200 mg dose, fasting state, N=8, read-out: AUC0-inf
  AUC0-inf: 36.8 ng·h/mL
[3]; 200 mg, median, single 200 mg dose, fasting state, N=8, read-out: Cmax
  Cmax: 30.2 ng/mL
[3]; 200 mg, median, single 200 mg dose, fasting state, N=8, read-out: T1/2 (converted)
  half-life: 1.49 h
[3]; 200 mg, median, single 200 mg dose, fasting state, N=8
  Tmax: 0.75 h
[3]; 400 mg, median, single 400 mg dose (Fasted), N=10, read-out: AUC0-inf
  AUC0-inf: 81 ng·h/mL
[3]; 400 mg, median, single 400 mg dose (Fasted), N=10, read-out: Cmax
  Cmax: 63.8 ng/mL
[3]; 400 mg, median, single 400 mg dose (Fasted), N=10, read-out: T1/2 (converted)
  half-life: 1.53 h
[3]; 400 mg, median, single 400 mg dose (Fasted), N=10
  Tmax: 1 h
[3]; 400 mg, median, single 400 mg dose (Fed), N=10, read-out: AUC0-inf
  AUC0-inf: 113 ng·h/mL
[3]; 400 mg, median, single 400 mg dose (Fed), N=10, read-out: Cmax
  Cmax: 56.6 ng/mL
[3]; 400 mg, median, single 400 mg dose (Fed), N=10, read-out: T1/2 (converted)
  half-life: 1.74 h
[3]; 400 mg, median, single 400 mg dose (Fed), N=10
  Tmax: 2.5 h
[3]; 800 mg, 800 mg cohort, fasting, single dose, read-out: median AUC0-inf
  AUC0-inf: 194 ng·h/mL
[3]; 800 mg, 800 mg cohort, fasting, single dose, read-out: median Cmax
  Cmax: 216 ng/mL
[3]; 800 mg, median, single 800 mg dose, fasting state, N=8, read-out: AUC0-inf
  AUC0-inf: 194 ng·h/mL
[3]; 800 mg, median, single 800 mg dose, fasting state, N=8, read-out: Cmax
  Cmax: 216 ng/mL
[3]; 800 mg, median, single 800 mg dose, fasting state, N=8, read-out: T1/2 (converted)
  half-life: 1.91 h
[3]; 800 mg, median, single 800 mg dose, fasting state, N=8
  Tmax: 0.5 h
[3]; 1600 mg, 1600 mg fasted cohort, single dose, read-out: median AUC0-inf
  AUC0-inf: 737 ng·h/mL
[3]; 1600 mg, 1600 mg fasted cohort, single dose, read-out: median Cmax
  Cmax: 685 ng/mL
[3]; 1600 mg, Geometric Mean of 10 subjects, single 1600 mg dose, Fasted, read-out: AUC0-inf
  AUC0-inf: 667 ng·h/mL
[3]; 1600 mg, Geometric Mean of 10 subjects, single 1600 mg dose, Fasted, read-out: Cmax
  Cmax: 538 ng/mL
[3]; 1600 mg, Geometric Mean of 10 subjects, single 1600 mg dose, Fasted, read-out: t½ (converted)
  half-life: 2.38 h
